# Test results as given in US20260124268A1 (priority 2019, published 2026).
# Where “and” joins values, the source holds several entries; their conditions need not be identical. Equal entries are not always repeated. Where two headings read alike, the source gives them in different places.
# Key:
# [1] = test system: Clostridium perfringens (CL-15, Type-A); assay type: in vivo, broilers (male Cobb 500); conditions: SF: salinomycin 0.042% in feed
# [2] = Growth performance and feed efficiency of challenged broilers; assay type: in vivo, broilers (male Cobb 500); conditions: SF: salinomycin 0.042% in feed; for Avg. daily gain / Weight gain: per bird
# Excerpt: Bird Placement. The birds in this study were sourced from a commercial hatchery and were housed at the Colorado Quality Research facility (CQR). Healthy male Cobb 500 were used in this study and were vaccinated for Mareks at the hatchery and upon arrival at CQR the birds were vaccinated for Newcastle and Infectious Bronchitis and were randomly divided into five treatments. At placement 24 birds were placed into each pen with 11 replicates per treatment. On day eight birds were culled or replaced as needed to have 22 birds per pen with the pen being the statistical unit. The treatments were assigned to blocks and randomized within blocks. All birds in this experiment were discarded on site. All data was collected by the Colorado Quality Research (CQR) staff. The protocol MS-18-1 was approved by the CQR IACUC committee.
# Basal and Experimental Diets. The starter, grower, and basal diets were manufactured at the CQR feed mill using CQR formulated diets and described in Table 1. The feed was made and stored in bulk. The final experimental diet mixing, pelleting and crumbling was conducted at CQR using a 500-lb capacity vertical mixer (Seedburo, Golden Valley, MN), a 4000-lb capacity vertical mixer (Prater, Bolingbrook, IL) and/or a 14,000-lb horizontal mixer (H&S Manufacturing, Marshfield, WI) and a California pellet mill (CPM Co., Crawfordsville, IN). The feed was stored in 50-lb feed sacks until needed.
# The product was made fresh daily and administered in the water using a liquid medicator (Farmer Boy Ag, Myerstown, PA). A different stock solution was prepared for each treatment and the stock solutions were weighed each day to determine the amount of product consumed. The stock solutions were adjusted accordingly to ensure that the correct dose has been administered based on water consumption. The antibiotic control SF birds were administered Salinomycin (Sacox 60, Phibro Animal Health Corp., Teaneck, NJ) in the feed at 0.042% for the whole experimental period. […] If abnormal conditions or abnormal behavior is noted at any of the twice-daily observations they were documented and added to the study records. The maximum and minimum temperatures were recorded daily. The dead birds were collected and counted each day from each pen. The mortality was recorded on pen sheet and the cause of death was recorded. The pen mortality and the NE-associated mortality were calculated based on total mortality and as a percentage. The percentages were calculated based on the number of re-count birds on day 8. The birds were weighed on day 0, 17, 28, and 35 and the average daily gain was calculated for each of these time periods. The final pen weight was also measured. The amount of feed consumed was calculated from the starter feed (DO-17), the grower feed (D18-28), finisher feed (D29-35), and over the whole period (DO-35). The feed efficiency and adjusted feed efficiency were calculated to compare different growth periods. On day 21, 5 birds from each pen were randomly selected using a first caught method. The birds were sacrificed and evaluated for intestinal lesions to score the severity of the lesion scores using the scale in Table 4.
# [3] = test system: Clostridium perfringens (CL-15, Type-A); assay type: in vivo, broilers (male Cobb 500); conditions: SF: salinomycin 0.042% in feed, day 21
# [4] = Evaluation of litter score (percent caked litter); assay type: in vivo, broilers (male Cobb 500); conditions: SF: salinomycin 0.042% in feed; day 28
# Procedure: Evaluation of Litter Score. The litter from each pen was evaluated on day 28 of the trial. The litter was evaluated based on percentage of caked litter in the pen. The percentages were grouped from 0-19, 20-39, 40-59, 60-79, and 80-100%. The mid-value from the percentage range was used to calculate the average pen litter score.
# MRSA 81M = assay: microbe, parasite or virus in culture; assay type: cell-based; conditions: Staphylococcus aureus, 24 h
# MRSA LA = assay: microbe, parasite or virus in culture; assay type: cell-based; conditions: Staphylococcus aureus, 24 h
# [5] = Day 28-35, % of birds at day 8 re-count
structure (smiles),measurement,setting,value
"CC[C@@H](C(=O)[C@@H](C)[C@@H](O)[C@H](C)[C@@H]1O[C@@H]([C@@H](CC)C(=O)O)CC[C@@H]1C)[C@H]1O[C@]2(C=C[C@@H](O)[C@]3(CC[C@@](C)([C@H]4CC[C@](O)(CC)[C@H](C)O4)O3)O2)[C@H](C)C[C@@H]1C [Salinomycin, salinomycin]",Total Mortality,"[1]; Day 0-17, % of birds at day 8 re-count",(2.1%)
same,Total Mortality,"[1]; Day 0-17, birds dead",5
same,Total Mortality,"[1]; Day 0-35, % of birds at day 8 re-count",(5.4%)
same,NE Mortality,"[1]; Day 0-35, birds dead",5
same,Total Mortality,"[1]; Day 0-35, birds dead",13
same,Total Mortality,"[1]; Day 17-28, % of birds at day 8 re-count",(2.1%)
same,NE Mortality,"[1]; Day 17-28, birds dead",4
same,Total Mortality,"[1]; Day 17-28, birds dead",5
same,NE Mortality,[1]; [5],(0.4%)
same,Total Mortality,[1]; [5],(1.2%)
same,NE Mortality,"[1]; Day 28-35, birds dead",1
same,Total Mortality,"[1]; Day 28-35, birds dead",3
same,Adj. F:G (adjusted feed-to-gain ratio),[2]; D 0-17,1.287
same,F:G (feed-to-gain ratio),[2]; D 0-17,1.320
same,Avg. daily gain,[2]; D 0-17,28.1 g/day
same,Weight gain,[2]; D 0-17,0.479 kg
same,Adj. F:G (adjusted feed-to-gain ratio),[2]; D 0-28,1.368
same,F:G (feed-to-gain ratio),[2]; D 0-28,1.656
same,Avg. daily gain,[2]; D 0-28,50.3 g/day
same,Weight gain,[2]; D 0-28,1.407 kg
same,Adj. F:G (adjusted feed-to-gain ratio),[2]; D 0-35,1.448
same,F:G (feed-to-gain ratio),[2]; D 0-35,1.666
same,Avg. daily gain,[2]; D 0-35,59.6 g/day
same,Weight gain,[2]; D 0-35,2.087 kg
same,Adj. F:G (adjusted feed-to-gain ratio),[2]; D17-28,1.421
same,Difference in weight gain compared to NTC,[2]; D17-28,−0.21%
same,F:G (feed-to-gain ratio),[2]; D17-28,1.947
same,Weight gain less than NTC birds,[2]; D17-28,2 grams
same,Avg. daily gain,[2]; D 17-28,84.4 g/day
same,Weight gain,[2]; D 17-28,0.928 kg
same,Adj. F:G (adjusted feed-to-gain ratio),[2]; D 28-35,1.654
same,F:G (feed-to-gain ratio),[2]; D 28-35,1.691
same,Avg. daily gain,[2]; D 28-35,97.1 g/day
same,Weight gain,[2]; D 28-35,0.680 kg
same,Increase in the harvest weight (final pen weight) compared to NTC,[2]; day 35,18.2%
same,Average pen weight,[2]; live pen weight at day 35,34.59 kg and 34.59a kg
same,Reduction in lesion score compared to NTC,[3],50.6%
same,Average lesion score,[3]; scale 0-4,0.80
same,Average percent caked litter,[4],79%
CO[C@@]1(NC(=O)Cc2cccs2)C(=O)N2C(C(=O)O)=C(COC(N)=O)CS[C@@H]21 [cefoxitin],MIC,MRSA 81M,100 µg/mL
same,MIC,MRSA LA,60 µg/mL
